Assay results as given in US20170143701A1, “CARBOHYDRATE METABOLISM-AMELIORATING AGENT” (SUNTORY HOLDINGS LIMITED, priority 2014, published 2017).

Tested on: NCI-H716 cells
Assay: In vitro GLP-1 secretion-accelerating action: amount of active GLP-1 secreted (ELISA)
Format: cell-based
Settings: 1 hour; for Significant difference (p < 0.05) vs control group, amount of active GLP-1 secreted: 10 mM, Student's t-test; for Amount of active GLP-1 secreted (relative value to control group as 100), average value: cyclic dipeptide 10 mM with 10 μM Sitagliptin phosphate, group with no cyclic dipeptide = 100
Procedure: Among the cyclic dipeptides, 92 highly water-soluble cyclic dipeptides were used in the following experiment. In each well of a Poly-L-Lysine 96-well plate, NCI-H716 cells suspended in 100 μL of a DMEM (with 10% FBS, 2 mM glutamine, and 1% antibiotics added in advance) were seeded at 0.5×10^5 cells/well, and cultured in a CO2 incubator (manufactured by ESPEC CORP.) for 48 hours. After washing with PBS(+), 100 μL of a PBS(+) solution with each cyclic dipeptide at a final concentration of 10 mM and 10 μM of Sitagliptin phosphate added therein was added to the cells. After 1 hour, the resultant solution was recovered, and the amount of active GLP-1 in the solution was measured by using the ELISA kit. In the analysis, the amount of active GLP-1 for a group with no cyclic dipeptide added was defined as 100, and relative values thereto were used.

| Compound | Significant difference (p < 0.05) vs control group, amount of active GLP-1 secreted (Table 3, Experiment 3) | Amount of active GLP-1 secreted (relative value to control group as 100), average value (Table 3, Experiment 3) | other results |
| --- | --- | --- | --- |
| C[C@@H]1NC(=O)[C@H](C)NC1=O [compound 3, Cyclo(Ala-Ala)] | – | – | Significant difference (p < 0.05) vs control group, amount of active GLP-1 secreted (Table 1, Experiment 1): No; Amount of active GLP-1 secreted (relative value to control group as 100), average value (Table 1, Experiment 1): 95 |
| NCCCC[C@@H]1NC(=O)[C@H](CC(N)=O)NC1=O [compound 101, cyclo-asparaginyl-lysine] | Yes | 250 | – |
| NCCCC[C@@H]1NC(=O)[C@H](CCC(=O)O)NC1=O [compound 97, Cyclo(Glu-Lys)] | No | 66 | – |
| NCCCC[C@@H]1NC(=O)[C@H](Cc2c[nH]c3ccccc23)NC1=O [compound 59, cyclo-tryptophanyl-lysine] | – | – | Significant difference (p < 0.05) vs control group, amount of active GLP-1 secreted (Table 2, Experiment 2): Yes; Amount of active GLP-1 secreted (relative value to control group as 100), average value (Table 2, Experiment 2): 239 |
| CC1NC(=O)CNC1=O (stereo not shown) [compound 121, Cyclo(Gly-Ala)] | No | 153 | – |
| CC(C)CC1NC(=O)C(CCCCN)NC1=O (stereo not shown) [compound 68, Cyclo(Leu-Lys)] | – | – | Significant difference (p < 0.05) vs control group, amount of active GLP-1 secreted (Table 2, Experiment 2): No; Amount of active GLP-1 secreted (relative value to control group as 100), average value (Table 2, Experiment 2): 208 |
| NCCCCC1NC(=O)C(CC(=O)O)NC1=O (stereo not shown) [compound 100, Cyclo(Asp-Lys)] | No | 116 | – |
| CSCCC1NC(=O)C(CC(N)=O)NC1=O (stereo not shown) [compound 175, cyclo-asparaginyl-methionine] | – | – | Significant difference (p < 0.05) vs control group, amount of active GLP-1 secreted (Table 4, Experiment 4): Yes; Amount of active GLP-1 secreted (relative value to control group as 100), average value (Table 4, Experiment 4): 218 |
| O=C1NC(CO)C(=O)N2CCCC12 (stereo not shown) [compound 46, Cyclo(Ser-Pro)] | – | – | Significant difference (p < 0.05) vs control group, amount of active GLP-1 secreted (Table 2, Experiment 2): No; Amount of active GLP-1 secreted (relative value to control group as 100), average value (Table 2, Experiment 2): 139 |
| O=C(O)CC1NC(=O)C(Cc2cnc[nH]2)NC1=O (stereo not shown) [compound 110, cyclo-aspartyl-histidine] | Yes | 340 | – |
| CC(O)C1NC(=O)C(Cc2cnc[nH]2)NC1=O (stereo not shown) [compound 109, cyclo-threonyl-histidine] | Yes | 290 | – |
| NC(N)=NCCC[C@@H]1NC(=O)[C@H](CO)NC1=O [compound 159, cyclo-arginyl-serine] | Yes | 135 | – |
| NC(=O)CCC1NC(=O)C(CC(=O)O)NC1=O (stereo not shown) [compound 171, Cyclo(Gln-Asp)] | No | 120 | – |
| NC(N)=NCCC[C@@H]1NC(=O)CNC1=O [compound 117, Cyclo(Arg-Gly)] | No | 98 | – |
| O=C1CNC(=O)[C@H](CO)N1 [compound 154, Cyclo(Ser-Gly)] | No | 116 | – |
| NC(=O)CCC1NC(=O)C2CCCN2C1=O (stereo not shown) [compound 188, Cyclo(Gln-Pro)] | – | – | Significant difference (p < 0.05) vs control group, amount of active GLP-1 secreted (Table 4, Experiment 4): No; Amount of active GLP-1 secreted (relative value to control group as 100), average value (Table 4, Experiment 4): 132 |
| NC(N)=NCCC[C@@H]1NC(=O)[C@H](Cc2cnc[nH]2)NC1=O [compound 112, Cyclo(Arg-His)] | No | 106 | – |
